Measured values: ChEMBL document CHEMBL4732047, “New imidazopyridines with phosphodiesterase 4 and 7 inhibitory activity and their efficacy in animal models of inflammatory and autoimmune diseases” (Eur J Med Chem, 2021)
Activity calls are given as the source filed them. No cut-off for these calls is given here.

Tests used:
[1] = target: cAMP and cAMP-inhibited cGMP 3',5'-cyclic phosphodiesterase 10A (Homo sapiens, UniProt Q9Y233); assay: Inhibition of human recombinant PDE10A using cAMP as substrate incubated for 20 mins measured by Kinase Glo reagent based microplate reader assay
Chain of cAMP and cAMP-inhibited cGMP 3',5'-cyclic phosphodiesterase 10A (Q9Y233 whole entry): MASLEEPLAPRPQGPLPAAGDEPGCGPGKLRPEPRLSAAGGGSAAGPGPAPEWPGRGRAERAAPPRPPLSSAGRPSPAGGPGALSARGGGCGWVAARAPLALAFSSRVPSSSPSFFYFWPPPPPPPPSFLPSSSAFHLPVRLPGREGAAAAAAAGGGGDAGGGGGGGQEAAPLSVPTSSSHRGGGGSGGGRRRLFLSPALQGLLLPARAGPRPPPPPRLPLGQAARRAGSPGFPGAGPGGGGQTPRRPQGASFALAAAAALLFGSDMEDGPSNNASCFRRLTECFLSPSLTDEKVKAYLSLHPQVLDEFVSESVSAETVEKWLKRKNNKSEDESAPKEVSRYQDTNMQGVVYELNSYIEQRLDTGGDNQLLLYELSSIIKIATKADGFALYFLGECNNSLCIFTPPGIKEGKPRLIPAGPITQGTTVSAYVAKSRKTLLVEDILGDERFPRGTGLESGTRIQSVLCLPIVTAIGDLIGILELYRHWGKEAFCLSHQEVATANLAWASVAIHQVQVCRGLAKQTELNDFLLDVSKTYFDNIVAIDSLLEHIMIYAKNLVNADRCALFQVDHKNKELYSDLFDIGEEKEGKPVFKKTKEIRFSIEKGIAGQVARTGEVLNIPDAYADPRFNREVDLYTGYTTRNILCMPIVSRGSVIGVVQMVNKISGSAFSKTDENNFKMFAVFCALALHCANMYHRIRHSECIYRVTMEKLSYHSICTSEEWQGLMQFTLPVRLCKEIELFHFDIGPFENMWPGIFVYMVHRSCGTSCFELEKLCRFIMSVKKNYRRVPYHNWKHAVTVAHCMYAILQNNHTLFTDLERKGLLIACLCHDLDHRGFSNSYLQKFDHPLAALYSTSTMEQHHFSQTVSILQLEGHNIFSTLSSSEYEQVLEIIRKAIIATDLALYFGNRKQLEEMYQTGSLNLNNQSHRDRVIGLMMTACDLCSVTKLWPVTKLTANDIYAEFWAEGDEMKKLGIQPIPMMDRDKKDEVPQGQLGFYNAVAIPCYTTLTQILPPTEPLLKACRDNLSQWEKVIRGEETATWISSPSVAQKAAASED

[2] = target: 3',5'-cyclic-AMP phosphodiesterase 4B (Homo sapiens, UniProt Q07343); assay: Inhibition of human recombinant PDE4B using cAMP as substrate incubated for 20 mins measured by Kinase Glo reagent based microplate reader assay
[3] = target: High affinity 3',5'-cyclic-AMP phosphodiesterase 7A (Homo sapiens, UniProt Q13946); assay: Inhibition of human recombinant PDE7A using cAMP as substrate incubated for 20 mins measured by Kinase Glo reagent based microplate reader assay
Chain of High affinity 3',5'-cyclic-AMP phosphodiesterase 7A (Q13946 whole entry): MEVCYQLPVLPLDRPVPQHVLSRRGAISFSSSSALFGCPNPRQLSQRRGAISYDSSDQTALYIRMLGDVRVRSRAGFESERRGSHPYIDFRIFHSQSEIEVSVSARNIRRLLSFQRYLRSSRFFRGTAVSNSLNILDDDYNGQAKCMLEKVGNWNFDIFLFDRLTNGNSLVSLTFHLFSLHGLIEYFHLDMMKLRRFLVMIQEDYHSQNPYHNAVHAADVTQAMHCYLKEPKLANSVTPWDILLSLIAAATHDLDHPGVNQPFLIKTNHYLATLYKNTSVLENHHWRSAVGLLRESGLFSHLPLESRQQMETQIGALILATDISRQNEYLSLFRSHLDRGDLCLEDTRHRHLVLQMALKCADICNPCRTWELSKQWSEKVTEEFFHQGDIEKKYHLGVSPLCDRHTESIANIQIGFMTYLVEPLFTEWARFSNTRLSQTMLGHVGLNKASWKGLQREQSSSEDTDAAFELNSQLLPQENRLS

[4] = target: Dual specificity calcium/calmodulin-dependent 3',5'-cyclic nucleotide phosphodiesterase 1B (Homo sapiens, UniProt Q01064); assay: Inhibition of human recombinant PDE1B using cAMP as substrate incubated for 20 mins measured by Kinase Glo reagent based microplate reader assay
Chain of Dual specificity calcium/calmodulin-dependent 3',5'-cyclic nucleotide phosphodiesterase 1B (Q01064 whole entry): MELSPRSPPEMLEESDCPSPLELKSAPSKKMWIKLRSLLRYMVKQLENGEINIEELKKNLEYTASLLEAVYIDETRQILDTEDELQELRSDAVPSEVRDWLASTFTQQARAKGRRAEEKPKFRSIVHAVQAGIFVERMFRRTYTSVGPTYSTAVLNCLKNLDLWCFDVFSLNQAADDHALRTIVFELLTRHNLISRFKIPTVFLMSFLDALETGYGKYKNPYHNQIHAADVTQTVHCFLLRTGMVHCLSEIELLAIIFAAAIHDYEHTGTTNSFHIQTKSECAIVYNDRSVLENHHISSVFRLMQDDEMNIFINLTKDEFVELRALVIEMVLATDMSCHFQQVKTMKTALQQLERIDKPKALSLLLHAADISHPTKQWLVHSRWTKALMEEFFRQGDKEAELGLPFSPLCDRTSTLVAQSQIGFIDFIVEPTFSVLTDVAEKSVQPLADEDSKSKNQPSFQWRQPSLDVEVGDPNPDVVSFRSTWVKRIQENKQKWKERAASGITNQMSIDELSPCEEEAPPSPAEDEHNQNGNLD

Rattus norvegicus [5] = assay: Antiinflammatory activity in collagen-induced arthritis Lewis rat model assessed as decrease in paw swelling at 20 mg/kg, ip once daily administered on day 20 after collagen treatment and treated until day 40 by macroscopic observation analysis; format: functional, organism-based
[6] = Clearance in male Wistar rat at 10 mg/kg, ip; format: ADME, organism-based; conditions: in vivo
[7] = Apparent volume of distribution during terminal phase in male Wistar rat at 10 mg/kg, ip; format: ADME, organism-based; conditions: in vivo, read-out: Vz/F
[8] = Clearance in female Lewis rat at 10 mg/kg, iv; format: ADME, organism-based; conditions: in vivo
[9] = AUC in male Wistar rat at 10 mg/kg, ip; format: ADME, organism-based; design: dose 10 mg/kg; conditions: in vivo
[10] = Apparent volume of distribution during terminal phase in female Lewis rat at 10 mg/kg, iv; format: ADME, organism-based; conditions: in vivo
[11] = AUC in female Lewis rat at 10 mg/kg, iv; format: ADME, organism-based; design: dose 10 mg/kg; conditions: in vivo
[12] = Elimination half life in female Lewis rat at 10 mg/kg, iv; format: ADME, organism-based; conditions: in vivo, read-out: beta t1/2
[13] = Elimination half life in male Wistar rat at 10 mg/kg, ip; format: ADME, organism-based; conditions: in vivo, read-out: beta t1/2
[14] = Cmax in female Lewis rat at 10 mg/kg, iv; format: ADME, organism-based; design: route intravenous, dose 10 mg/kg; conditions: in vivo
[15] = Cmax in male Wistar rat at 10 mg/kg, ip; format: ADME, organism-based; design: route intraperitoneal, dose 10 mg/kg; conditions: in vivo
[16] = Tmax in female Lewis rat at 10 mg/kg, iv; format: ADME, organism-based; conditions: in vivo
[17] = Tmax in male Wistar rat at 10 mg/kg, ip; format: ADME, organism-based; conditions: in vivo
[18] = target: cGMP-dependent 3',5'-cyclic phosphodiesterase (Homo sapiens, UniProt O00408); assay: Inhibition of human recombinant PDE2A using cGMP as substrate incubated for 20 mins measured by Kinase Glo reagent based microplate reader assay
Chain of cGMP-dependent 3',5'-cyclic phosphodiesterase (O00408 whole entry): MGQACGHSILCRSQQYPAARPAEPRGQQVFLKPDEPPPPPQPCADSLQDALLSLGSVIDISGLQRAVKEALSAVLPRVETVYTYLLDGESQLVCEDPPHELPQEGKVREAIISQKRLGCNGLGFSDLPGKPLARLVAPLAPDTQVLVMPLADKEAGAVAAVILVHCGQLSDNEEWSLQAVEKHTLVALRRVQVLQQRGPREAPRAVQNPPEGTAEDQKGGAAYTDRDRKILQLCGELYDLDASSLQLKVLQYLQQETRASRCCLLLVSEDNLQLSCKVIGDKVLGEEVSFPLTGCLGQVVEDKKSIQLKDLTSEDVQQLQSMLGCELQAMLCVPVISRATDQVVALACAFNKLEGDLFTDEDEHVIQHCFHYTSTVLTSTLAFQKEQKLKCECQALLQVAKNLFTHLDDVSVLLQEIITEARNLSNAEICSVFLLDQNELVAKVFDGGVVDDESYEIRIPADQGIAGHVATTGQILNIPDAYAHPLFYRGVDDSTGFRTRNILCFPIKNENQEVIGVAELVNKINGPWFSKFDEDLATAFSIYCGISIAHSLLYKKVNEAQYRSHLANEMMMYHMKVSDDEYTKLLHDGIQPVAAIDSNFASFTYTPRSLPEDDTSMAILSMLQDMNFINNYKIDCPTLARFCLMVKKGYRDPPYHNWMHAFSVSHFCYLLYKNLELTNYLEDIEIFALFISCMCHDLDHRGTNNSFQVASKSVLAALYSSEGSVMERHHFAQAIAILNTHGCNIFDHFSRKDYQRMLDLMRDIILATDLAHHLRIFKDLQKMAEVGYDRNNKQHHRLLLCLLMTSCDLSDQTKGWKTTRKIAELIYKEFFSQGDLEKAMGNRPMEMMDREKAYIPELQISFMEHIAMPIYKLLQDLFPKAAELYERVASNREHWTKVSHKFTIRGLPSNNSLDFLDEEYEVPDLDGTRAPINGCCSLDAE

[19] = target: cGMP-inhibited 3',5'-cyclic phosphodiesterase 3A (Homo sapiens, UniProt Q14432); assay: Inhibition of human recombinant PDE3A using cAMP as substrate incubated for 20 mins measured by Kinase Glo reagent based microplate reader assay
Chain of cGMP-inhibited 3',5'-cyclic phosphodiesterase 3A (Q14432 whole entry): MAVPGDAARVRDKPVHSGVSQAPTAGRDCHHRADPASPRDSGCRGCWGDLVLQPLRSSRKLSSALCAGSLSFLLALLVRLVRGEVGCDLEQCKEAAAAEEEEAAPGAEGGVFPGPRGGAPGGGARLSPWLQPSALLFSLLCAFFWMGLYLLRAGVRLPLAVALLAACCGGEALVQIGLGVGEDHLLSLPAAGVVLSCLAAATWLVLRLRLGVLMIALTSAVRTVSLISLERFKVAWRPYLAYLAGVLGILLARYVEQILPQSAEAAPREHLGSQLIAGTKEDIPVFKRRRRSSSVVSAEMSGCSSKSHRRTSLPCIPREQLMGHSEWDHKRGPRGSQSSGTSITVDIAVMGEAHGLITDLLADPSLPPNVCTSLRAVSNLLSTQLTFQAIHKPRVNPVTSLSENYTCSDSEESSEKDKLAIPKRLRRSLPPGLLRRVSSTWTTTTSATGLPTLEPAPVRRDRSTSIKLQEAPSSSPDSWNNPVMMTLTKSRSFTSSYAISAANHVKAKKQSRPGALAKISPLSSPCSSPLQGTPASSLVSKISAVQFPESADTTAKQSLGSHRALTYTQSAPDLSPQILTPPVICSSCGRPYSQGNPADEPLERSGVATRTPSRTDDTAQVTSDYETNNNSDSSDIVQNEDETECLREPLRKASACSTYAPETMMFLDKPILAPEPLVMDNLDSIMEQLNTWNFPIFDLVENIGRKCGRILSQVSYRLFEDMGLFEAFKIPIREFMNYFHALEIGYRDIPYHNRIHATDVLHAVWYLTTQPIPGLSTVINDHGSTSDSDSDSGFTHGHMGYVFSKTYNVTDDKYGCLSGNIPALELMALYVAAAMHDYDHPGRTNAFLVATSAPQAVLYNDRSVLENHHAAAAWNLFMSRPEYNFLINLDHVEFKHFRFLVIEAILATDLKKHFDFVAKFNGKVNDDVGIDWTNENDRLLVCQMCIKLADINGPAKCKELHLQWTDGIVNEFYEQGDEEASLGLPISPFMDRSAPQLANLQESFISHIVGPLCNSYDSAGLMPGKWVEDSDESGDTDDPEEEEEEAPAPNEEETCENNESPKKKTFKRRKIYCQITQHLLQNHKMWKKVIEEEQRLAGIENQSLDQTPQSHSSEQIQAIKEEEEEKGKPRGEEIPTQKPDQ

[20] = target: 3',5'-cyclic-AMP phosphodiesterase 4D (Homo sapiens, UniProt Q08499); assay: Inhibition of human recombinant PDE4D using cAMP as substrate incubated for 20 mins measured by Kinase Glo reagent based microplate reader assay
Chain of 3',5'-cyclic-AMP phosphodiesterase 4D (Q08499 whole entry): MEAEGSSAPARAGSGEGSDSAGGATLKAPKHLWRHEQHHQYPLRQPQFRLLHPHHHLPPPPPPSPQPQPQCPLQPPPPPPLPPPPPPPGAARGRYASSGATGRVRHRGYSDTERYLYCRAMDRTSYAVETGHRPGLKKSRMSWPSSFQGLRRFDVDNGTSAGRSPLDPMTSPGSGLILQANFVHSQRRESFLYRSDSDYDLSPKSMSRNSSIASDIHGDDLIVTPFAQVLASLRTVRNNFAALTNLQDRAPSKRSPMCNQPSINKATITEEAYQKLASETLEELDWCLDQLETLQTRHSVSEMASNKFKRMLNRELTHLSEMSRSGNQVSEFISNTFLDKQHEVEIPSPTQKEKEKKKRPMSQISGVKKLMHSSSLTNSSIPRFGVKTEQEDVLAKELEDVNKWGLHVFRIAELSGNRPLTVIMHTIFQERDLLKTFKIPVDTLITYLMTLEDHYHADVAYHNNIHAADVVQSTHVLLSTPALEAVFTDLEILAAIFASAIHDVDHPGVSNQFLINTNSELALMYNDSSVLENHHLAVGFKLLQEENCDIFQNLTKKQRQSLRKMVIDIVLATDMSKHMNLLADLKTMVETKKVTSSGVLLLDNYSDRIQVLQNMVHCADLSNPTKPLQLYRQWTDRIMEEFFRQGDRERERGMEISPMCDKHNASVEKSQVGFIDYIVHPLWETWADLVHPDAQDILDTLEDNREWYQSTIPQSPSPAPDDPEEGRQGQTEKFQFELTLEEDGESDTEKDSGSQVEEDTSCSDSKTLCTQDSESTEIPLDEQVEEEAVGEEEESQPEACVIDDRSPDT

[21] = target: cGMP-specific 3',5'-cyclic phosphodiesterase (Homo sapiens, UniProt O76074); assay: Inhibition of human recombinant PDE5A using cGMP as substrate incubated for 20 mins measured by Kinase Glo reagent based microplate reader assay
Mus musculus [22] = assay: Hepatoprotective activity in ConA-induced BALB/c hepatitis mouse model assessed as decrease in serum alanine aminotransferase level at 50 mg/kg, ip administration and measured after 8 hrs relative to control; format: functional, organism-based
Mus musculus [23] = assay: Hepatoprotective activity in ConA-induced BALB/c hepatitis mouse model assessed as decrease in serum aspartate aminotransferase level at 50 mg/kg, ip administration and measured after 8 hrs relative to control; format: functional, organism-based
Mus musculus [24] = assay: Hepatoprotective activity in ConA-induced BALB/c hepatitis mouse model assessed as decrease in serum alanine aminotransferase level at 10 mg/kg, ip administration and measured after 8 hrs relative to control; format: functional, organism-based
Mus musculus [25] = assay: Hepatoprotective activity in ConA-induced BALB/c hepatitis mouse model assessed as decrease in serum aspartate aminotransferase level at 10 mg/kg, ip administration and measured after 8 hrs relative to control; format: functional, organism-based
Mus musculus [26] = assay: Hepatoprotective activity in ConA-induced BALB/c hepatitis mouse model assessed as decrease in serum IL-6 level at 50 mg/kg, ip administration and measured after 8 hrs relative to control; format: functional, organism-based
Mus musculus [27] = assay: Hepatoprotective activity in ConA-induced BALB/c hepatitis mouse model assessed as decrease in serum IFNgamma level at 50 mg/kg, ip administration and measured after 8 hrs relative to control; format: functional, organism-based
Mus musculus [28] = assay: Hepatoprotective activity in ConA-induced BALB/c hepatitis mouse model assessed as decrease in serum IL-6 level at 10 mg/kg, ip administration and measured after 8 hrs relative to control; format: functional, organism-based
Mus musculus [29] = assay: Hepatoprotective activity in ConA-induced BALB/c hepatitis mouse model assessed as decrease in serum IFNgamma level at 10 mg/kg, ip administration and measured after 8 hrs relative to control; format: functional, organism-based
Rattus norvegicus [30] = assay: Antiinflammatory activity in LPS-induced Wistar rat endotoxemia model assessed as decrease in plasma TNFalpha level at 20 mg/kg, ip measured after 1 hr; format: functional; design: scale not given: the % may be the effect or the level left
Rattus norvegicus [31] = assay: Antiinflammatory activity in LPS-induced Wistar rat endotoxemia model assessed as decrease in plasma TNFalpha level at 20 mg/kg, ip measured after 1.5 hr; format: functional; design: scale not given: the % may be the effect or the level left
Rattus norvegicus [32] = assay: Antiinflammatory activity in LPS-induced Wistar rat endotoxemia model assessed as decrease in plasma TNFalpha level at 20 mg/kg, ip measured after 2 hr; format: functional; design: scale not given: the % may be the effect or the level left
[33] = Brain to serum concentration ratio in C57BL/6 mouse at 50 mg/kg, ip measured after 5 mins; format: ADME, organism-based
[34] = Brain to serum concentration ratio in C57BL/6 mouse at 50 mg/kg, ip measured after 15 mins; format: ADME, organism-based
[35] = Brain to serum concentration ratio in C57BL/6 mouse at 50 mg/kg, ip measured after 60 mins; format: ADME, organism-based
Mus musculus [36] = assay: Immunosuppressive activity in MOG (35 to 55 residues) toxin-induced experimental autoimmune encephalomyelitis female C57BL/6 mouse model assessed as reduction in clinical scores at 50 mg/kg, ip administered […] once daily starting from day 1 post immunization and measured 15 days; format: functional, organism-based; conditions: time 15.0 day
[37] = Drug uptake in C57BL/6 mouse brain at 50 mg/kg, ip measured up to 60 mins; format: ADME, organism-based; conditions: read-out: Drug uptake
Mus musculus [38] = assay: Immunosuppressive activity in MOG (35 to 55 residues) toxin-induced experimental autoimmune encephalomyelitis C57BL/6 mouse model assessed reduction in disease onset at 50 mg/kg, ip; format: functional, organism-based
[39] = Selectivity index, ratio of IC50 for inhibition of human recombinant PDE4D to IC50 for inhibition of human recombinant PDE4B
[40] = Selectivity index, ratio of IC50 for inhibition of human recombinant PDE3A to IC50 for inhibition of human recombinant PDE4B
[41] = Elimination half life in Wistar rat; format: ADME; conditions: in vivo, read-out: beta t1/2
Mus musculus [42] = assay: Immunosuppressive activity in MOG (35 to 55 residues) toxin-induced experimental autoimmune encephalomyelitis C57BL/6 mouse model assessed decrease in polymorphonuclear leukocytes infiltration into spinal cored at 50 mg/kg, ip relative to untreated control; format: functional, organism-based
Mus musculus [43] = assay: Immunosuppressive activity in MOG (35 to 55 residues) toxin-induced experimental autoimmune encephalomyelitis C57BL/6 mouse model assessed decrease in macrophages infiltration into spinal cored at 50 mg/kg, ip relative to untreated control; format: functional, organism-based
Mus musculus [44] = assay: Immunosuppressive activity in MOG (35 to 55 residues) toxin-induced experimental autoimmune encephalomyelitis C57BL/6 mouse model assessed as reduction in white matter vacuolation in cerebellum at 50 mg/kg, ip relative to untreated control; format: functional, organism-based

OCCCNc1ccnc2c1nc(-c1ccco1)n2C1CCCC1
IC50 [1]: 5.75 µM
IC50 [2]: 2.53 µM
IC50 [3]: 88 µM
IC50 [4]: 8.45 µM
Activity (Rattus norvegicus [5]): Active
CL/F [6]: 140 mL/min/kg
Vd/F [7]: 3.92 L/kg
clearance [8]: 70 mL/min/kg
AUC [9]: 1230 ng·h/mL
Vz/F [10]: 1.85 L/kg
AUC [11]: 2530 ng·h/mL
half-life [12]: 19.5 min
half-life [13]: 20.1 min
Cmax [14]: 10600 ng/mL
Cmax [15]: 1940 ng/mL
Tmax [16]: 0 h
Tmax [17]: 15 min
IC50 [18]: 40.7 µM
IC50 [19]: 47.3 µM
IC50 [20]: 35.6 µM
IC50 [21]: 2.71 µM
Activity (Mus musculus [22]): Active
Activity (Mus musculus [23]): Active
Activity (Mus musculus [24]): Active
Activity (Mus musculus [25]): Active
Activity (Mus musculus [26]): Active
Activity (Mus musculus [27]): Active
Activity (Mus musculus [28]): Active
Activity (Mus musculus [29]): Active
Activity (Rattus norvegicus [30]): 49%
Activity (Rattus norvegicus [31]): 51%
Activity (Rattus norvegicus [32]): 44%
Kp at 5 min [33]: 2.96
Kp at […] [34]: 5.87
Kp at 1 h [35]: 4.34
Activity (Mus musculus [36]): Active
concentration at 1 h [37]: ≥ 830 ng/mL
Activity (Mus musculus [38]): Active
Ratio IC50 [39]: > 10
Ratio IC50 [40]: > 10
half-life [41]: 30 min
Activity (Mus musculus [42]): Active
Activity (Mus musculus [43]): Active
Activity (Mus musculus [44]): Active
